One may read the IC50 as the point on the concentration scale where inhibition reaches its midpoint.

Data on eleven compounds can be found in patent US9751842B2, “Phthalazine derivatives” (Merck Patent GmbH, priority 2013, dated 2017).

Read-outs that look alike come from different tables or passages of the source. Bounds are passed on as bounds.

Common to all, as to format: biochemical
Assay [1] has as its target T1, GST-tagged Tankyrase-1 (1023-1327 aa) (Homo sapiens, UniProt O95271).
T1 construct: GST-tagged Tankyrase-1 (1023-1327 aa)
The assay is described as follows: Tankyrase 1 autoparsylation HTRF enzyme assay. Here is the method: (§1) Biochemical Activity Testing of Tankyrase 1 and 2: Autoparsylation Assay
(§2) The autoparsylation assay is run in two steps: the enzymatic reaction in which GST-tagged Tankyrase-1, resp Tankyrase-2 transferred biotinylated ADP-ribose to itself from biotinylated NAD as co-substrate and the detection reaction where a time resolved FRET between cryptate labelled anti-GST bound to the GST tag of the enzyme and Xlent® labelled-streptavidin bound the biotin-parsylation residue is analysed. The autoparsylation activity was detectable directly via the increase in HTRF signal.
(§3) The autoparsylation assay is performed as 384-well HTRF® (Cisbio, Codolet, France) assay format in Greiner low volume nb 384-well microtiter plates and is used for high throughput screen. 250 nM GST-tagged Tankyrase-1 (1023-1327 aa), respectively about 250 nM GST-tagged Tankyrase-2 (873-1166 aa) and 5 μM bio-NAD (Biolog, Life science Inst., Bremen, Germany) as co-substrate are incubated in a total volume of 5 μl (50 mM HEPES, 4 mM Mg-chloride, 0.05% Pluronic F-68, 1.4 mM DTT, 0.5% DMSO, pH 7.7) in the absence or presence of the test compound (10 dilution concentrations) for 90 min at 30° C. The reaction is stopped by the addition of 1 μl 50 mM EDTA solution. 2 μl of the detection solution (1.6 μM SA-Xlent® (Cisbio, Codolet, France), 7.4 nM Anti-GST-K® (Eu-labelled anti-GST, Cisbio, Codolet, France) in 50 mM HEPES, 800 mM KF, 0.1° A. BSA, 20 mM EDTA, 0.1% CHAPS, pH 7.0) are added. After 1 h incubation at room temperature the HTRF is measured with an Envision multimode reader (Perkin Elmer LAS Germany GmbH) at excitation wavelength 340 nm (laser mode) and emission wavelengths 615 nm and 665 nm. The ratio of the emission signals is determined. The full value used is the inhibitor-free reaction. The pharmacological zero value used is XAV-939 (Tocris) in a final concentration of 5 μM. The inhibitory values (IC50) are determined using either the program Symyx Assay Explorer® or Condosseo® from GeneData.

Assay [2] deals with T2, GST-tagged Tankyrase-2 (873-1166 aa) (Homo sapiens, UniProt Q9H2K2).
T2 construct: GST-tagged Tankyrase-2 (873-1166 aa)
The assay can be described thus: Tankyrase 2 autoparsylation HTRF enzyme assay. On the procedure:
as §1, §2, §3
Background: Time-resolved FRET reads energy transfer from a long-lived donor to a nearby acceptor.

In another assay the target is T3, His-tagged Parp-1 (Homo sapiens, UniProt P09874).
T3 construct: purchased Enzo Life Sciences GmbH, Lörrach, Germany
The assay can be described thus: PARP-1 autoparsylation HTRF assay. Conditions: 150 min at 23° C. The source says:
Description of the PARP1 Assay
Biochemical Activity Testing of PARP-1: Autoparsylation Assay
The autoparsylation assay is run in two steps: the enzymatic reaction in which His-tagged Parp-1 transfers biotinylated ADP-ribose/ADP-ribose to itself from biotinylated NAD/NAD as co-substrate and the detection reaction where a time resolved FRET between cryptate labelled anti-His antibody bound to the His tag of the enzyme and Xlent® labelled-streptavidin bound the biotin parsylation residue is analysed. The autoparsylation activity is detectable directly via the increase in HTRF signal.
The autoparsylation assay is performed as 384-well HTRF® (Cisbio, Codolet, France) assay format in Greiner low volume nb 384-well microtiter plates. 35 nM His-tagged Parp-1 (human, recombinant, Enzo Life Sciences GmbH, Lörrach, Germany) and a mixture of 125 nM bio-NAD (Biolog, Life science Inst., Bremen, Germany) and 800 nM NAD as co-substrate are incubated in a total volume of 6 μl (100 mM Tris/HCl, 4 mM Mg-chloride, 0.01% IGEPAL® CA630, 1 mM DTT, 0.5% DMSO, pH 8, 13 ng/μl activated DNA (BPS Bioscience, San Diego, US)) in the absence or presence of the test compound (10 dilution concentrations) for 150 min at 23° C. The reaction is stopped by the addition of 4 μl of the Stop/detection solution (70 nM SA-Xlent® (Cisbio, Codolet, France), 2.5 nM Anti-His-K® (Eu-labelled anti-His, Cisbio, Codolet, France) in 50 mM HEPES, 400 mM KF, 0.1% BSA, 20 mM EDTA, pH 7.0). After 1 h incubation at room temperature the HTRF is measured with an Envision multimode reader (Perkin Elmer LAS Germany GmbH) at excitation wavelength 340 nm (laser mode) and emission wavelengths 615 nm and 665 nm. The ratio of the emission signals is determined. The full value used is the inhibitor-free reaction. The pharmacological zero value used is Olaparib (LClabs, Woburn, US) in a final concentration of 1 μM. The inhibitory values (IC50) are determined using either the program Symyx Assay Explorer® or Condosseo® from GeneData.

Assay [3] deals with T4, GST-tagged Tnks-1 (1023-1327 aa) (Homo sapiens, UniProt O95271).
T4 construct: GST-tagged Tnks-1 (1023-1327 aa, prepared in-house); made in house
The assay can be described thus: TNKS1 activity ELISA (autoparsylation). Here is the method:
(§4) Description of the TNKS1 and TNKS2 ELISA Assay
(§5) Biochemical Activity Testing of TNKS 1 and 2: Activity ELISA (Autoparsylation Assay)
(§6) For analysis of autoparsylation activity of TNKS 1 and 2 an activity ELISA is performed: In the first step GST tagged TNKS is captured on a Glutathione coated plate. Then the activity assay with biotinylated NAD is performed in the absence/presence of the compounds. During the enzymatic reaction GST tagged TNKS transfers biotinylated ADP-ribose to itself from biotinylated NAD as co-substrate. For the detection streptavidin-HRP conjugate is added that binds to the biotinylated TNKS and is thereby captured to the plates. The amount of biotinylated resp. autoparsylated TNKS is detected with a luminescence substrate for HRP. The level of the luminescence signal correlates directly with the amount of autoparsylated TNKS and therefore with activity of TNKS.
(§7) The activity ELISA is performed in 384 well Glutathione coated microtiter plates (Express capture Glutathione coated plate, Biocat, Heidelberg, Germany). The plates are pre-equilibrated with PBS. Then the plates are incubated with 50 μl 20 ng/well GST-tagged Tnks-1 (1023-1327 aa, prepared in-house), respectively GST-tagged Tnks-2 (873-1166 aa, prepared in-house) in assay buffer (50 mM HEPES, 4 mM Mg-chloride, 0.05% Pluronic F-68, 2 mM DTT, pH 7.7) overnight at 4° C. The plates are washed 3 times with PBS-Tween-20. The wells are blocked by incubation at room temperature for 20 minutes with 50 μl blocking buffer (PBS, 0.05% Tween-20, 0.5% BSA). Afterwards the plates are washed 3 times with PBS-Tween-20. The enzymatic reaction is performed in 50 μl reaction solution (50 mM HEPES, 4 mM Mg-chloride, 0.05% Pluronic F-68, 1.4 mM DTT, 0.5% DMSO, pH 7.7) with 10 μM bio-NAD (Biolog, Life science Inst., Bremen, Germany) as co-substrate in the absence or presence of the test compound (10 dilution concentrations) for 1 hour at 30° C. The reaction is stopped by 3 times washing with PBS-Tween-20. For the detection 50 μl of 20 ng/μl Streptavidin, HRP conjugate (MoBiTec, Göttingen, Germany) in PBS/0.05% Tween-20/0.01% BSA are added and the plates are incubated for 30 minutes at room temperature. After three times washing with PBS-Tween-20 50 μl of SuperSignal ELISA Femto Maximum sensitivity substrate solution (ThermoFisherScientific (Pierce), Bonn, Germany) are added. Following a 1 minute incubation at room temperature luminescence signals are measured with an Envision multimode reader (Perkin Elmer LAS Germany GmbH) at 700 nm. The full value used is the inhibitor-free reaction. The pharmacological zero value used is XAV-939 (Tocris) in a final concentration of 5 μM. The inhibitory values (IC50) are determined using either the program Symyx Assay Explorer® or Condosseo® from GeneData.
(In general: In an ELISA, binding on a coated surface is turned into a signal by an enzyme label.)

For assay [4], the target named is T5, GST-tagged Tnks-2 (873-1166 aa) (Homo sapiens, UniProt Q9H2K2).
T5 construct: GST-tagged Tnks-2 (873-1166 aa, prepared in-house); made in house
The assay can be described thus: TNKS2 activity ELISA (autoparsylation). Here is the method: as §4, §5, §6, §7

[5] abbreviates: HTRF autoparsylation, 90 min at 30° C, read-out: IC50 TNKS1 enzyme assay.
Where [6] appears, read: HTRF autoparsylation, 90 min at 30° C, read-out: IC50 TNKS2 enzyme assay.
[7] abbreviates: activity ELISA, 1 hour at 30° C, read-out: IC50 TNKS1 ELISA.
Where [8] appears, read: activity ELISA, 1 hour at 30° C, read-out: IC50 TNKS2 ELISA.

T3 sequence (P09874 whole entry): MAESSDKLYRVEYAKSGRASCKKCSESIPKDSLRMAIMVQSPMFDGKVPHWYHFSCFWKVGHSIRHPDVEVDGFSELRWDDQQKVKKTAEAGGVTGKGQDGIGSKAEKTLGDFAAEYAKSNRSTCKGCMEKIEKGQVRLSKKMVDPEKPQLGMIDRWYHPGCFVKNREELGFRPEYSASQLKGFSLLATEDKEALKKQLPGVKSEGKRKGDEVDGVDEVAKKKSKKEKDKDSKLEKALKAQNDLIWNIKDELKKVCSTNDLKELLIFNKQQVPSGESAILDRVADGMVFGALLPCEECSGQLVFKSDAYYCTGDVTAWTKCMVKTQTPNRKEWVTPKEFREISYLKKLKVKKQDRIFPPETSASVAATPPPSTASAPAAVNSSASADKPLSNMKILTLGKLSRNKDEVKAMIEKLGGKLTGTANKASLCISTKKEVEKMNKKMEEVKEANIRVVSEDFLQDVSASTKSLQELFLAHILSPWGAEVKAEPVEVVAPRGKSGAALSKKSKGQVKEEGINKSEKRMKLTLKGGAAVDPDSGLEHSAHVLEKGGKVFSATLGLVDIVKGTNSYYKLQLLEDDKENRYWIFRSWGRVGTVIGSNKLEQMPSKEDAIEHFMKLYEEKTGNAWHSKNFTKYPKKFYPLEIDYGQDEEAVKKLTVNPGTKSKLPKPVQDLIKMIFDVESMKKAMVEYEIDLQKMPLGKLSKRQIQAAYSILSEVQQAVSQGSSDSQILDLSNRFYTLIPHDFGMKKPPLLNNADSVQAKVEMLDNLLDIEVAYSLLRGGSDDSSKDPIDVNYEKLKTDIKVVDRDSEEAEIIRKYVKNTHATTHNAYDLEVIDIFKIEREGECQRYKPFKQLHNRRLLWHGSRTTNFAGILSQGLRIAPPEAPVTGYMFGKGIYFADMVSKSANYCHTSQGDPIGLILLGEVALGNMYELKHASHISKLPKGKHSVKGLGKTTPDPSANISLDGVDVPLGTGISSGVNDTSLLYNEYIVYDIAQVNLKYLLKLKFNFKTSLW
T5 sequence (Q9H2K2 873-1166): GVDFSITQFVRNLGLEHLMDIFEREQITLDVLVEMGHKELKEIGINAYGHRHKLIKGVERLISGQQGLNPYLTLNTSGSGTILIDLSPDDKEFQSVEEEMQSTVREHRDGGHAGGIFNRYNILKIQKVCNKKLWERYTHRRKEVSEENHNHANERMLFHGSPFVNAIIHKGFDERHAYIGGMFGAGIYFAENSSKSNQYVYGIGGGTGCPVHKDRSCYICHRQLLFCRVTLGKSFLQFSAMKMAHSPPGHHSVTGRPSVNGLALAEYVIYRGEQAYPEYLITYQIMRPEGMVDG
T2 sequence (Q9H2K2 873-1166): as above
T1 sequence (O95271 1023-1327): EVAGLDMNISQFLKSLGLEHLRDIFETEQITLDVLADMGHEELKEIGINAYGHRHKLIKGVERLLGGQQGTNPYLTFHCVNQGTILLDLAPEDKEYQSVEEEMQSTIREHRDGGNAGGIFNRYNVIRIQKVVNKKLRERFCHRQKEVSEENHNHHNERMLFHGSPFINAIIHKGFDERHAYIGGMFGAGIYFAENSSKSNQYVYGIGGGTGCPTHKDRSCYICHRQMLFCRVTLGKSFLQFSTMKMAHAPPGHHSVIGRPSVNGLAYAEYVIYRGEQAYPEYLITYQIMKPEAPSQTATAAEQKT
T4 sequence (O95271 1023-1327): as above

Consider `O=C(Cc1cccc(OC(F)(F)F)c1)Nc1nncc2ccccc12` [Compound A5, N-phthalazin-1-yl-2-(3-trifluoromethoxyphenyl)-acetamide], for which the IC50 in assay [1] (setting [5]) was 0.3 to 3 µM; in assay [2] (setting [6]), 3 to 50 µM; against His-tagged Parp-1 it was 3 to 50 µM; in assay [3] (setting [7]), 0.3 to 3 µM; in assay [4] (setting [8]) it was 0.3 to 3 µM.
In the case of `N#Cc1cccc(CC(=O)Nc2nncc3ccccc23)c1` [Compound A6, 2-(3-cyanophenyl)-N-phthalazin-1-yl-acetamide], the IC50 was 0.3 to 3 µM in assay [1] (setting [5]); 3 to 50 µM in assay [2] (setting [6]); 0.3 to 3 µM against His-tagged Parp-1; 0.3 to 3 µM in assay [3] (setting [7]); 0.3 to 3 µM in assay [4] (setting [8]).
`O=C(Cc1cccc([N+](=O)[O-])c1)Nc1nncc2ccccc12` [Compound A7, 2-(3-nitrophenyl)-N-phthalazin-1-yl-acetamide]: the IC50 (in assay [1]; in assay [2]; at His-tagged Parp-1; in assay [3]; in assay [4]) was 0.3 to 3 µM throughout.
As to `O=C(Cc1ccc(OC(F)(F)F)cc1)Nc1nncc2ccccc12` [Compound A8, N-phthalazin-1-yl-2-(4-trifluoromethoxyphenyl)-acetamide], the IC50 was under 0.3 µM in assay [1] (setting [5]); 0.3 to 3 µM in assay [2] (setting [6]); 3 to 50 µM on His-tagged Parp-1; under 0.3 µM in assay [3] (setting [7]); under 0.3 µM in assay [4] (setting [8]).
Consider `CC(C)(C)c1ccc(CC(=O)Nc2nncc3ccccc23)cc1` [Compound A9, 2-(4-tert-butylphenyl)-N-phthalazin-1-yl-acetamide], for which the IC50 in assay [1] (setting [5]) is 0.3 to 3 µM; in assay [2] (setting [6]) it was 0.3 to 3 µM; against His-tagged Parp-1, 3 to 50 µM; in assay [3] (setting [7]) it was under 0.3 µM; in assay [4] (setting [8]), under 0.3 µM.
`O=C(Cc1c(Cl)cccc1Cl)Nc1nncc2ccccc12` [Compound A10, 2-(2,6-dichlorophenyl)-N-phthalazin-1-yl-acetamide]: the IC50 (in assay [1] (setting [5]); in assay [2] (setting [6]); on His-tagged Parp-1) was 3 to 50 µM in each case.
In the case of `CCOc1ccc(CC(=O)Nc2nncc3c(F)cccc23)cc1` [Compound A11, 2-(4-ethoxy-phenyl)-N-(5-fluoro-phthalazin-1-yl)-acetamide], the IC50 in assay [1] (setting [5]) and in assay [2] (setting [6]) was 3 to 50 µM in each case.
As for `COc1ccc(CC(=O)Nc2nncc3c(F)cccc23)cc1` [Compound A12, N-(5-fluoro-phthalazin-1-yl)-2-(4-methoxy-phenyl)-acetamide], the IC50 in assay [1] (setting [5]) fell in the range of 0.3 to 3 µM; in assay [2] (setting [6]), 3 to 50 µM.
Consider `O=C(CCC1CCCCC1)Nc1nncc2ccccc12` [Compound A13, 3-cyclohexyl-N-phthalazin-1-yl-propionamide], for which the IC50 in assay [1] (setting [5]) is 0.3 to 3 µM; in assay [2] (setting [6]) it was 0.3 to 3 µM; against His-tagged Parp-1, 3 to 50 µM; in assay [3] (setting [7]), under 0.3 µM; in assay [4] (setting [8]), under 0.3 µM.
In the case of `Cc1cccc2c(NC(=O)Cc3ccccc3)nncc12` [Compound A19, N-(5-methyl-phthalazin-1-yl)-2-phenyl-acetamide], the IC50 in assay [1] (setting [5]) and in assay [2] (setting [6]) was 3 to 50 µM in each case.
In the case of `COc1ccc(CC(=O)Nc2nncc3c(C)cccc23)cc1` [Compound A21, 2-(4-methoxy-phenyl)-N-(5-methyl-phthalazin-1-yl)-acetamide], the IC50 in assay [1] (setting [5]) and in assay [2] (setting [6]) was 3 to 50 µM throughout.
